# Experimental data reported in EPA's ToxRefDB 2.
# Columns and labels:
# rat [1] = details: Subchronic oral toxicity in rodents, sprague dawley, Feed, dose end: 90 day, group: systemic
# hamster = details: Chronic toxicity, Oral, Feed, dose end: 24 month, group: systemic
# rat [2] = details: Combined chronic toxicity/carcinogenicity; sprague dawley; Oral; Feed; dose end: 24 month; group: systemic; systemic / in life observation / body weight / body weight
# rat [3] = details: Prenatal developmental toxicity study, sprague dawley, Oral, Gavage/Intubation, dose end: 20 GD
# rat [4] = details: Multigenerational reproductive toxicity study, sprague dawley, Oral, Feed, dose end: 2 generation
# mouse [5] = details: Carcinogenicity, cd1, Oral, Feed, dose end: 24 month, group: systemic
# dog [6] = details: Chronic toxicity, beagle, Oral, Capsule, dose end: 12 month, group: systemic
# dog [7] = details: Chronic toxicity; beagle; Oral; Feed; dose end: 52 week; group: systemic; systemic / hematology / erythrocyte (rbc) count differential / erythrocyte (rbc) + systemic / hematology / hemoglobin (hgb) / hemoglobin (…
# rat [8] = details: Prenatal developmental toxicity study, sprague dawley, Oral, Gavage/Intubation, dose end: 16 GD
# mouse [9] = details: Carcinogenicity; cd1; Oral; [Not Specified]; dose end: 104 week; group: systemic; systemic / in life observation / body weight / body weight + systemic / in life observation / body weight / body weight gain
# rabbit [10] = details: Prenatal developmental toxicity study, new zealand white, Oral, Gavage/Intubation, dose end: 19 GD
# dog [11] = details: Chronic toxicity; beagle; Oral; Feed; dose end: 52 week; group: systemic; systemic / hematology / erythrocyte (rbc) count differential / erythrocyte (rbc) + systemic / hematology / hemoglobin (hgb) / hemoglobin (…; remark: listed apart in the source
# rat [12] = details: Combined chronic toxicity/carcinogenicity, sprague dawley, Oral, Feed, dose end: 24 month, group: systemic
# mouse [13] = details: Subchronic oral toxicity in rodents, cd1, Feed, dose end: 13 week, group: systemic
# rat [14] = details: Multigenerational reproductive toxicity study, sprague dawley, Oral, Feed, dose end: 2 generation; remark: listed apart in the source
# mouse [15] = details: Combined chronic toxicity/carcinogenicity, cd1, Oral, Feed, dose end: 104 week, group: systemic
# rat [16] = details: Prenatal developmental toxicity study, sprague dawley, Oral, Gavage/Intubation, dose end: 15 GD
# rat [17] = details: Subchronic oral toxicity in rodents, other, Feed, dose end: 13 week
# rat [18] = details: Subchronic oral toxicity in rodents, sprague-dawley, Feed, dose end: 13 week, group: systemic
# rat [19] = details: Combined chronic toxicity/carcinogenicity, other, Oral, Gavage/Intubation, dose end: 104 week, group: systemic
# rabbit [20] = details: Prenatal developmental toxicity study, new zealand white, Oral, Gavage/Intubation, dose end: 18 GD
# [21] = systemic / in life observation / body weight / body weight gain + systemic / organ weight / heart / relative to body weight
# [22] = systemic / organ weight / heart / relative to body weight
# [23] = systemic / in life observation / mortality / mortality + systemic / pathology microscopic / kidney / inflammation
# [24] = systemic / in life observation / mortality / mortality + systemic / pathology microscopic / kidney / inflammation + systemic / pathology …
# [25] = group: developmental, developmental / developmental malformation / bone / misaligned + developmental / developmental malformation / general / hemorrhage + …
# [26] = group: maternal, systemic / in life observation / body weight / body weight + systemic / in life observation / body weight / body weight gain + systemic / in…
# [27] = group: offspring, systemic / in life observation / body weight / offspring (pup) weight
# [28] = group: offspring, systemic / in life observation / body weight / offspring (pup) weight + systemic / organ weight / brain / absolute + systemic / organ weight…
# [29] = group: parental, systemic / organ weight / liver / relative to body weight + systemic / hematology / hematocrit (hct) / hematocrit (hct) + systemic / …
# [30] = group: parental, systemic / organ weight / liver / relative to body weight + systemic / in life observation / body weight / body weight + systemic / in life …
# [31] = group: reproductive, reproductive / offspring survival early / litter size / litter size
# [32] = systemic / in life observation / food consumption / food consumption
# [33] = systemic / in life observation / body weight / body weight gain + systemic / organ weight / liver / relative to body weight
# [34] = systemic / in life observation / body weight / body weight gain + systemic / organ weight / liver / relative to body weight + systemic / …
# [35] = group: developmental, systemic / in life observation / body weight / fetal weight
# [36] = group: maternal, systemic / in life observation / clinical signs / alopecia + systemic / in life observation / clinical signs / vaginal discharge
# [37] = group: maternal, systemic / in life observation / clinical signs / alopecia + systemic / in life observation / clinical signs / vaginal discharge + systemic…
# [38] = group: developmental, developmental / developmental malformation / aorta / double + developmental / developmental malformation / gallbladder / absent + …
# [39] = group: maternal, systemic / in life observation / body weight / body weight gain
# [40] = group: maternal, systemic / in life observation / body weight / body weight gain + reproductive / reproductive performance / aborted / aborted + systemic / …
# [41] = systemic / in life observation / clinical signs / hyperactivity
# [42] = systemic / in life observation / clinical signs / hyperactivity + systemic / in life observation / body weight / body weight + systemic / in…
# [43] = systemic / organ weight / liver / relative to body weight
# [44] = group: offspring, systemic / in life observation / clinical signs / tremors + systemic / in life observation / body weight / litter weight + systemic / in …
# [45] = group: offspring, systemic / in life observation / clinical signs / tremors + systemic / pathology gross / skin / ulcer
# [46] = group: parental, systemic / pathology gross / skin / ulcer
# [47] = systemic / pathology gross / skin / lesion(s) (nos) + systemic / pathology microscopic / skin / inflammation
# [48] = group: developmental, developmental / developmental malformation / bone / absent + developmental / developmental malformation / bone / delayed ossification + …
# [49] = group: maternal, systemic / in life observation / body weight / body weight gain + systemic / in life observation / clinical signs / blood around eyes and …
# [50] = group: cholinesterase, cholinesterase / cholinesterase / cholinesterase / erythrocyte cholinesterase (che)
# [51] = group: systemic, systemic / hematology / erythrocyte (rbc) count differential / erythrocyte (rbc) + systemic / hematology / hematocrit (hct) / hematocrit (…
# [52] = systemic / in life observation / body weight / body weight + systemic / in life observation / water consumption / water consumption + …
# [53] = systemic / pathology microscopic / mammary gland / fibroadenoma
# [54] = group: developmental, developmental / developmental malformation / bone / short
# [55] = group: developmental, developmental / developmental malformation / bone / short + developmental / developmental malformation / bone / [other]
# [56] = group: maternal, reproductive / offspring survival early / offspring survival early other / NOS + reproductive / reproductive performance / resorptions / …
smiles,measurement,setting,value
O=[N+]([O-])c1ccc(O)cc1C(F)(F)F [3-Trifluoromethyl-4-nitrophenol],LOAEL,rat [1]; [21],146 mg/kg/day
same,NEL,rat [1]; [21],25 mg/kg/day
same,NOAEL,rat [1]; [21],81 mg/kg/day
same,LEL,rat [1]; [22],45 mg/kg/day
same,LOAEL,hamster; [23],24.9 mg/kg/day
same,NOAEL,hamster; [23],< 24.9 mg/kg/day
same,LEL,hamster; [24],24.9 mg/kg/day
same,NEL,hamster; [24],< 24.9 mg/kg/day
CCSC(=O)N(CC(C)C)CC(C)C [Butylate],LEL,rat [2],100 mg/kg/day
same,LOAEL,rat [2],100 mg/kg/day
same,NEL,rat [2],50 mg/kg/day
same,NOAEL,rat [2],50 mg/kg/day
same,LEL,rat [3]; [25],400 mg/kg/day
same,LOAEL,rat [3]; [25],400 mg/kg/day
same,NEL,rat [3]; [25],40 mg/kg/day
same,NOAEL,rat [3]; [25],40 mg/kg/day
same,LEL,rat [3]; [26],400 mg/kg/day
same,LOAEL,rat [3]; [26],400 mg/kg/day
same,NEL,rat [3]; [26],40 mg/kg/day
same,NOAEL,rat [3]; [26],40 mg/kg/day
same,NEL,rat [4]; [27],10 mg/kg/day
same,NOAEL,rat [4]; [27],10 mg/kg/day
same,LEL,rat [4]; [28],50 mg/kg/day
same,LOAEL,rat [4]; [28],50 mg/kg/day
same,NEL,rat [4]; [29],10 mg/kg/day
same,NOAEL,rat [4]; [29],10 mg/kg/day
same,LEL,rat [4]; [30],50 mg/kg/day
same,LOAEL,rat [4]; [30],50 mg/kg/day
same,LEL,rat [4]; [31],200 mg/kg/day
same,LOAEL,rat [4]; [31],> 200 mg/kg/day
same,NEL,rat [4]; [31],50 mg/kg/day
same,NOAEL,rat [4]; [31],≥ 200 mg/kg/day
same,LOAEL,mouse [5]; systemic / in life observation / body weight / body weight + systemic / pathology microscopic / kidney / amyloid deposition + systemic / …,80 mg/kg/day
same,LEL,mouse [5]; [32],20 mg/kg/day
same,NEL,mouse [5]; [32],< 20 mg/kg/day
same,NOAEL,mouse [5]; systemic / in life observation / food consumption / food consumption + systemic / in life observation / body weight / body weight + systemic…,20 mg/kg/day
same,LEL,dog [6]; [33],25 mg/kg/day
same,LOAEL,dog [6]; [33],25 mg/kg/day
same,NEL,dog [6]; [34],5 mg/kg/day
same,NOAEL,dog [6]; [34],5 mg/kg/day
COc1nc(C)nc(NC(=O)NS(=O)(=O)c2ccccc2Cl)n1 [Chlorsulfuron],LEL,dog [7],254 mg/kg/day
same,LOAEL,dog [7],254 mg/kg/day
same,NEL,dog [7],60.6 mg/kg/day
same,NOAEL,dog [7],60.6 mg/kg/day
same,LEL,rat [8]; [35],1500 mg/kg/day
same,LOAEL,rat [8]; [35],1500 mg/kg/day
same,NEL,rat [8]; [35],500 mg/kg/day
same,NOAEL,rat [8]; [35],500 mg/kg/day
same,LEL,rat [8]; [36],500 mg/kg/day
same,LOAEL,rat [8]; [36],500 mg/kg/day
same,NEL,rat [8]; [37],165 mg/kg/day
same,NOAEL,rat [8]; [37],165 mg/kg/day
same,LEL,mouse [9],750 mg/kg/day
same,LOAEL,mouse [9],750 mg/kg/day
same,NEL,mouse [9],108 mg/kg/day
same,NOAEL,mouse [9],108 mg/kg/day
same,LEL,rabbit [10]; [38],400 mg/kg/day
same,LOAEL,rabbit [10]; [38],400 mg/kg/day
same,NEL,rabbit [10]; [38],200 mg/kg/day
same,NOAEL,rabbit [10]; [38],200 mg/kg/day
same,LEL,rabbit [10]; [39],200 mg/kg/day
same,LOAEL,rabbit [10]; [39],200 mg/kg/day
same,NEL,rabbit [10]; [40],75 mg/kg/day
same,NOAEL,rabbit [10]; [40],75 mg/kg/day
same,LEL,dog [11],254 mg/kg/day
same,LOAEL,dog [11],254 mg/kg/day
same,NEL,dog [11],60.6 mg/kg/day
same,NOAEL,dog [11],60.6 mg/kg/day
same,LEL,rat [12]; [41],30 mg/kg/day
same,LOAEL,rat [12]; [41],30 mg/kg/day
same,NEL,rat [12]; [42],2 mg/kg/day
same,NOAEL,rat [12]; [42],2 mg/kg/day
CC(C)C(Nc1ccc(C(F)(F)F)cc1Cl)C(=O)OC(C#N)c1cccc(Oc2ccccc2)c1 (stereo not given) [Fluvalinate],LEL,mouse [13]; [43],1 mg/kg/day
same,NEL,mouse [13]; [43],< 1 mg/kg/day
same,NOAEL,mouse [13]; systemic / pathology gross / skin / lesion(s) (nos) + systemic / hematology / erythrocyte (rbc) count differential / erythrocyte (rbc) + …,3 mg/kg/day
same,LOAEL,mouse [13]; systemic / pathology gross / skin / lesion(s) (nos) + systemic / in life observation / body weight / body weight,30 mg/kg/day
same,LEL,rat [14]; [44],9.53 mg/kg/day
same,LOAEL,rat [14]; [44],9.53 mg/kg/day
same,NEL,rat [14]; [45],1.9 mg/kg/day
same,NOAEL,rat [14]; [45],1.9 mg/kg/day
same,LEL,rat [14]; [46],9.53 mg/kg/day
same,LOAEL,rat [14]; [46],9.53 mg/kg/day
same,NEL,rat [14]; [46],1.9 mg/kg/day
same,NOAEL,rat [14]; [46],1.9 mg/kg/day
same,LEL,mouse [15]; [47],10 mg/kg/day
same,NEL,mouse [15]; [47],2 mg/kg/day
same,LOAEL,mouse [15]; systemic / pathology microscopic / kidney / inflammation,20 mg/kg/day
same,NOAEL,mouse [15]; systemic / pathology microscopic / kidney / inflammation + systemic / pathology gross / skin / lesion(s) (nos) + systemic / pathology …,10 mg/kg/day
same,LEL,rat [16]; [48],50 mg/kg/day
same,LOAEL,rat [16]; [48],> 50 mg/kg/day
same,NEL,rat [16]; [48],10 mg/kg/day
same,NOAEL,rat [16]; [48],≥ 50 mg/kg/day
same,LEL,rat [16]; [39],10 mg/kg/day
same,LOAEL,rat [16]; [39],10 mg/kg/day
same,NEL,rat [16]; [49],2 mg/kg/day
same,NOAEL,rat [16]; [49],2 mg/kg/day
same,LEL,rat [17]; [50],18.8 mg/kg/day
same,LOAEL,rat [17]; [50],> 116 mg/kg/day
same,NEL,rat [17]; [50],7.7 mg/kg/day
same,NOAEL,rat [17]; [50],≥ 116 mg/kg/day
same,LEL,rat [17]; [51],1.82 mg/kg/day
same,LOAEL,rat [17]; [51],1.82 mg/kg/day
same,NEL,rat [17]; [51],< 1.82 mg/kg/day
same,NOAEL,rat [17]; [51],< 1.82 mg/kg/day
same,LOAEL,rat [18]; systemic / hematology / erythrocyte (rbc) count differential / erythrocyte (rbc),30 mg/kg/day
same,NOAEL,rat [18]; systemic / hematology / erythrocyte (rbc) count differential / erythrocyte (rbc) + systemic / clinical chemistry / albumin / albumin + …,3 mg/kg/day
same,LEL,rat [18]; [22],0.3 mg/kg/day
same,NEL,rat [18]; [22],< 0.3 mg/kg/day
same,LOAEL,rat [19]; [52],2.5 mg/kg/day
same,NOAEL,rat [19]; [52],1 mg/kg/day
same,LEL,rat [19]; [53],0.25 mg/kg/day
same,NEL,rat [19]; [53],< 0.25 mg/kg/day
same,LEL,rabbit [20]; [54],125 mg/kg/day
same,LOAEL,rabbit [20]; [54],125 mg/kg/day
same,NEL,rabbit [20]; [55],25 mg/kg/day
same,NOAEL,rabbit [20]; [55],25 mg/kg/day
same,LEL,rabbit [20]; [56],125 mg/kg/day
same,LOAEL,rabbit [20]; [56],125 mg/kg/day
same,NEL,rabbit [20]; [56],25 mg/kg/day
same,NOAEL,rabbit [20]; [56],25 mg/kg/day
